From US9115101B2 (Genentech, Inc., priority 2012, dated 2015)

molecular target: T1, RORc ligand binding domain (Homo sapiens, UniProt P51449); assay: In Vitro RORc Ligand Binding Assay (25-[3H]hydroxycholesterol radioligand filtration); details: In Vitro RORc Ligand Binding Assay; Table 4; read-out: RORc IC50
T1 construct: host or cells: E. coli
T1 sequence (P51449 269-508 limits assumed): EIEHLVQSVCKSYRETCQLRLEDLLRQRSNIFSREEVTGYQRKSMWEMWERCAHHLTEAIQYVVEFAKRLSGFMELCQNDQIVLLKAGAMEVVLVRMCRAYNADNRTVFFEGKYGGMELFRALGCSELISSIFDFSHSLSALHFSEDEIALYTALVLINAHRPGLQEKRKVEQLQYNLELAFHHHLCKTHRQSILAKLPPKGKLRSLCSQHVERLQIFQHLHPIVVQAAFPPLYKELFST

SMILES | IC50 [nM]
CC(=O)N1CCN(c2ccc(CN3[C@@H](C)CCC(c4ccccc4)S3(=O)=O)cc2)CC1 (single isomer, unassigned) [Example 41] | 126
CC(=O)N1CCN(c2ccc(CN3[C@@H](C)CCC(c4ccccc4)S3(=O)=O)cn2)CC1 (single isomer, unassigned) [Example 42] | 837
CC(=O)N1CCN(c2ccc(CN3[C@@H](C)CCC(c4ccccc4)S3(=O)=O)cn2)CC1 (single isomer, unassigned) [Example 43] | 1500
C[C@H]1CCC(c2ccccc2)S(=O)(=O)N1Cc1ccc(OC2CCN(S(C)(=O)=O)CC2)cc1 (single isomer, unassigned) [Example 44] | 14
C[C@H]1CCC(c2ccccc2)S(=O)(=O)N1Cc1ccc(OC2CCN(S(C)(=O)=O)CC2)cc1 (single isomer, unassigned) [Example 45] | 22
CC(=O)N1CCN(c2ccc(CN3[C@H](C)CCC(c4ccccc4)S3(=O)=O)cc2)CC1 (single isomer, unassigned) [Example 47] | 299
CC(=O)N1CCN(c2ccc(CN3[C@H](C)CCC(c4ccccc4)S3(=O)=O)cn2)CC1 (single isomer, unassigned) [Example 48] | 1500
CC(=O)N1CCN(c2ccc(CN3[C@H](C)CCC(c4ccccc4)S3(=O)=O)cn2)CC1 (single isomer, unassigned) [Example 49] | 5500
C[C@@H]1CCC(c2ccccc2)S(=O)(=O)N1Cc1ccc(OC2CCN(S(C)(=O)=O)CC2)nc1 (single isomer, unassigned) [Example 50] | 168
C[C@@H]1CCC(c2ccccc2)S(=O)(=O)N1Cc1ccc(OC2CCN(S(C)(=O)=O)CC2)nc1 (single isomer, unassigned) [Example 51] | 1400
CS(=O)(=O)N1CCC(Oc2ccc(CN3CCCC(c4ccccc4)S3(=O)=O)c(F)c2)CC1 (single isomer, unassigned) [Example 54, 2-(2-fluoro-4-((1-(methylsulfonyl)piperidin-4-yl)oxy)benzyl)-6-phenyl-1,2-thiazinane 1,1-dioxide] | 37
CS(=O)(=O)N1CCC(Oc2ccc(CN3CCCC(c4ccccc4)S3(=O)=O)c(F)c2)CC1 (single isomer, unassigned) [Example 55, 2-(2-fluoro-4-((1-(methylsulfonyl)piperidin-4-yl)oxy)benzyl)-6-phenyl-1,2-thiazinane 1,1-dioxide] | 86
CS(=O)(=O)N1CCC(Oc2ccc(CN3CCOCC(c4ccccc4)S3(=O)=O)c(F)c2)CC1 (single isomer, unassigned) [Example 56, 5-(2-fluoro-4-((1-(methylsulfonyl)piperidin-4-yl)oxy)benzyl)-3-phenyl-1,4,5-oxathiazepane 4,4-dioxide] | 94
CS(=O)(=O)N1CCC(Oc2ccc(CN3CCOCC(c4ccccc4)S3(=O)=O)c(F)c2)CC1 (single isomer, unassigned) [Example 57, 5-(2-fluoro-4-((1-(methylsulfonyl)piperidin-4-yl)oxy)benzyl)-3-phenyl-1,4,5-oxathiazepane 4,4-dioxide] | 14
C[C@H]1CCC(c2ccccc2)S(=O)(=O)N1Cc1ccc(N2CCN(C(=O)C3CC3)CC2)cc1F (single isomer, unassigned) [Example 58] | 14
C[C@H]1CCC(c2ccccc2)S(=O)(=O)N1Cc1ccc(N2CCN(C(=O)C3CC3)CC2)cc1F (single isomer, unassigned) [Example 59] | 15
C[C@H]1CCC(c2ccccc2)S(=O)(=O)N1Cc1ccc(N2CCN(C(=O)C3CC3)CC2)cc1 (single isomer, unassigned) [Example 60] | 15
C[C@H]1CCC(c2ccccc2)S(=O)(=O)N1Cc1ccc(N2CCN(C(=O)C3CC3)CC2)cc1 (single isomer, unassigned) [Example 61] | 61
CC(=O)N1CCN(c2ccc(CN3[C@@H](C)CC(c4ccccc4)S3(=O)=O)c(F)c2)CC1 (single isomer, unassigned) [Example 63] | 570
CC(=O)N1CCN(c2ccc(CN3[C@@H](C)CC(c4ccccc4)S3(=O)=O)c(F)c2)CC1 (single isomer, unassigned) [Example 64] | 709
CC(=O)N1CCN(c2ccc(CN3[C@H](C)CC(c4ccccc4)S3(=O)=O)c(F)c2)CC1 (single isomer, unassigned) [Example 65] | 2300
CC(=O)N1CCN(c2ccc(CN3[C@H](C)CC(c4ccccc4)S3(=O)=O)c(F)c2)CC1 (single isomer, unassigned) [Example 66] | 310
CC(=O)N1CCN(c2ccc(CN3CC(C)CC(c4ccccc4)S3(=O)=O)c(F)c2)CC1 (single isomer, unassigned) [Example 68, 1-{4-[3-Fluoro-4-(4-methyl-1,1-dioxo-6-phenyl-[1,2]thiazinan-2-ylmethyl)-phenyl]-piperazin-1-yl}-ethanone] | 403
C[C@H]1CCC(c2ccccc2)S(=O)(=O)N1Cc1ccc(N2CCN(C(=O)CC#N)CC2)cc1F (single isomer, unassigned) [Example 69] | 103
C[C@H]1CCC(c2ccccc2)S(=O)(=O)N1Cc1ccc(N2CCN(C(=O)CC#N)CC2)cc1F (single isomer, unassigned) [Example 71] | 41

SMILES | IC50 [nM]
C[C@H]1CCC(c2ccccc2)S(=O)(=O)N1Cc1ccc(N2CCN(C(=O)CCC#N)CC2)cc1F (single isomer, unassigned) [Example 72] | 64
C[C@H]1CCC(c2ccccc2)S(=O)(=O)N1Cc1ccc(N2CCN(C(=O)CCC#N)CC2)cc1F (single isomer, unassigned) [Example 73] | 466
COCC(=O)N1CCN(c2ccc(CN3[C@@H](C)CCC(c4ccccc4)S3(=O)=O)c(F)c2)CC1 (single isomer, unassigned) [Example 74] | 29
COCC(=O)N1CCN(c2ccc(CN3[C@@H](C)CCC(c4ccccc4)S3(=O)=O)c(F)c2)CC1 (single isomer, unassigned) [Example 75] | 167
CO[C@@H](C)C(=O)N1CCN(c2ccc(CN3[C@@H](C)CCC(c4ccccc4)S3(=O)=O)c(F)c2)CC1 (single isomer, unassigned) [Example 76] | 31
CO[C@@H](C)C(=O)N1CCN(c2ccc(CN3[C@@H](C)CCC(c4ccccc4)S3(=O)=O)c(F)c2)CC1 (single isomer, unassigned) [Example 77] | 138
C[C@H](O)C(=O)N1CCN(c2ccc(CN3[C@@H](C)CCC(c4ccccc4)S3(=O)=O)c(F)c2)CC1 (single isomer, unassigned) [Example 78] | 29
C[C@H](O)C(=O)N1CCN(c2ccc(CN3[C@@H](C)CCC(c4ccccc4)S3(=O)=O)c(F)c2)CC1 (single isomer, unassigned) [Example 79] | 82
CC(=O)N1CCCN(c2ccc(CN3[C@@H](C)CCC(c4ccccc4)S3(=O)=O)c(F)c2)CC1 (single isomer, unassigned) [Example 80] | 14
CC(=O)N1CCCN(c2ccc(CN3[C@@H](C)CCC(c4ccccc4)S3(=O)=O)c(F)c2)CC1 (single isomer, unassigned) [Example 81] | 118
C[C@H]1CCC(c2ccccc2)S(=O)(=O)N1Cc1ccc(N2CCCN(C(=O)CC#N)CC2)cc1F (single isomer, unassigned) [Example 82] | 22
C[C@H]1CCC(c2ccccc2)S(=O)(=O)N1Cc1ccc(N2CCCN(C(=O)CC#N)CC2)cc1F (single isomer, unassigned) [Example 83] | 213
C[C@H]1CCC(c2ccccc2)S(=O)(=O)N1Cc1ccc(N2CC3(CCOCC3)C2)cc1F (single isomer, unassigned) [Example 84] | 23
C[C@H]1CCC(c2ccccc2)S(=O)(=O)N1Cc1ccc(N2CC3(CCOCC3)C2)cc1F (single isomer, unassigned) [Example 85] | 89
C[C@H]1CCC(c2ccccc2)S(=O)(=O)N1Cc1ccc(N2CCC(C#N)CC2)cc1F (single isomer, unassigned) [Example 86] | 15
C[C@H]1CCC(c2ccccc2)S(=O)(=O)N1Cc1ccc(N2CCC(C#N)CC2)cc1F (single isomer, unassigned) [Example 87] | 200
C[C@H]1CCC(c2ccccc2)S(=O)(=O)N1Cc1ccc(N2CCCNCC2)cc1F (single isomer, unassigned) [Example 88] | 819
C[C@H]1CCC(c2ccccc2)S(=O)(=O)N1Cc1ccc(N2CCCNCC2)cc1F (single isomer, unassigned) [Example 89] | 1250
CO[C@@H](C)C(=O)N1CCCN(c2ccc(CN3[C@@H](C)CCC(c4ccccc4)S3(=O)=O)c(F)c2)CC1 (single isomer, unassigned) [Example 90] | 76
C[C@H](O)C(=O)N1CCCN(c2ccc(CN3[C@@H](C)CCC(c4ccccc4)S3(=O)=O)c(F)c2)CC1 (single isomer, unassigned) [Example 91] | 254
CO[C@@H](C)C(=O)N1CCCN(c2ccc(CN3[C@@H](C)CCC(c4ccccc4)S3(=O)=O)c(F)c2)CC1 (single isomer, unassigned) [Example 92] | 154
C[C@H](O)C(=O)N1CCCN(c2ccc(CN3[C@@H](C)CCC(c4ccccc4)S3(=O)=O)c(F)c2)CC1 (single isomer, unassigned) [Example 93] | 49
C[C@H]1CCC(c2ccccc2)S(=O)(=O)N1Cc1ccc(N2CC3(CCOC3)C2)cc1F (single isomer, unassigned) [Example 94] | 54
C[C@H]1CCC(c2ccccc2)S(=O)(=O)N1Cc1ccc(N2CC3(CCOC3)C2)cc1F (single isomer, unassigned) [Example 95] | 93
C[C@H]1CCC(c2ccccc2)S(=O)(=O)N1Cc1ccc(N2CCNCC2)cc1F (single isomer, unassigned) [Example 96] | 4480
